Data set [1] deals with IMR-90. Description: Cytotoxicity against human IMR90 cells after 44 to 46 hrs by CellTiter-Blue assay. The class given is cell-based. On the technique in general: Alamar Blue is a resazurin reagent that responds to reducing activity.
For data set [2], the system named is Trypanosoma brucei. The experiment in a line: Antitrypanosomal activity against Trypanosoma brucei 90-13 bloodstream forms after 72 hrs by CellTiter-Blue assay. The format is functional. The settings on record: 90-13, 72 h.
Data set [3] in a line: Selectivity index, ratio of EC50 for cytotoxicity against human IMR90 cells to EC50 for antitrypanosomal activity against Trypanosoma brucei 90-13 bloodstream forms. The format is toxicity, cell-based. To be noted: read-out: Ratio EC50.
Data set [4] deals with Leishmania amazonensis. The experiment in a line: Anti-parasitic activity against Leishmania amazonensis promastigotes after 44 hrs by CellTiter-Blue assay. The class given is functional.
A short description of data set [5]: Selectivity index, ratio of EC50 for cytotoxicity against human IMR90 cells to EC50 for anti-parasitic activity against Leishmania amazonensis promastigotes. The settings on record: read-out: Ratio EC50. The format is toxicity, cell-based.
In data set [6] the test system is Trypanosoma brucei. Description: Induction of apoptosis in Trypanosoma brucei 90-13 bloodstream forms assessed as dead cells at EC50 after 6 to 24 hrs by Annexin-V-FITC/propidium iodide staining based flow cytometry (reference value: 49.7%). The format is functional. (In general: Flow cytometry measures light scatter and fluorescence of single cells or particles in a stream.)

The test system of data set [7] is Trypanosoma brucei. Description: Induction of apoptosis in Trypanosoma brucei 90-13 bloodstream forms at EC50 after 6 hrs by Annexin-V-FITC/propidium iodide staining based flow cytometry (reference value: 47.3%). The class given is functional.
Data set [8] relates to Trypanosoma brucei. Description: Induction of apoptosis in Trypanosoma brucei 90-13 bloodstream forms after 6 to 24 hrs by Annexin-V-FITC/propidium iodide staining based flow cytometry. The format is functional.
The test system of data set [9] is Trypanosoma brucei. Description: Induction of apoptosis in Trypanosoma brucei 29-13 procyclic forms after 6 to 24 hrs by Annexin-V-FITC/propidium iodide staining based flow cytometry (reference value: 658 RFU). The class given is functional.

Here are results for 30 molecules from ChEMBL document CHEMBL3994630, “Antiparasitic lethality of sulfonamidebenzamides in kinetoplastids” (Bioorg Med Chem Lett, 2017).

Active and inactive are the calls of the source. The calls are words filed in the database; no cut-off is given here.

The EC50 is the concentration needed to bring the measured effect to its halfway point. Read a low EC50 as greater potency. As for `O=C(Nc1ccc(S(=O)(=O)N2CCC3(CCCCC3)CC2)cc1)c1ccc([N+](=O)[O-])o1`, the EC50 in [1] was above 25000 nM; in data set [2], 30 nM; in data set [4], 1500 nM. The selectivity ratio was above 833 in [3] and above 17 in [5].
For the molecule `CC1(C)CCN(S(=O)(=O)c2ccc(NC(=O)c3ccc([N+](=O)[O-])o3)cc2)CC1`, the EC50 in data set [1] was above 25000 nM; in data set [2], 90 nM; in data set [4], 280 nM. In addition, the selectivity ratio in data set [3] is above 278; in data set [5], above 89.
For `O=C(Nc1ccc(S(=O)(=O)N2CCOCC2)cc1)c1ccc([N+](=O)[O-])s1` the same measures were above 25000 nM, 60 nM, 1300 nM, above 417 and above 19.
For `O=C(Nc1ccc(S(=O)(=O)N2CCC(Cl)CC2)cc1)c1ccc([N+](=O)[O-])o1` the same measures were above 25000 nM, 80 nM, 7900 nM, above 313 and above 3.
For `O=C(Nc1ccc(S(=O)(=O)C2=CCOC=C2)cc1)c1ccc([N+](=O)[O-])o1` the same measures were above 25000 nM, 530 nM, 300 nM, above 47 and above 83.
Take `O=C(Nc1cccc(S(=O)(=O)N2CCOCC2)c1)c1ccc([N+](=O)[O-])o1`: the 50% effective concentration (EC50) in data set [1] was above 25000 nM; in data set [2], 1470 nM; in [4], 900 nM. The results for the selectivity ratio in data set [3] and in data set [5] were above 17 and above 28, respectively.
For `O=C(Nc1ccc(S(=O)(=O)N2CCOCC2)cc1)c1ccc([N+](=O)[O-])o1`, in that order: above 25000 nM, 460 nM, 3000 nM, above 54 and above 8.
Take `O=C(Nc1ccc(S(=O)(=O)N2CCOCC2)cc1)c1ccccc1`: the figures for the concentration giving a half-maximal response (EC50) in data set [1], in [2] and in data set [4] were above 25000 nM, above 10000 nM and above 25000 nM, respectively.
`CC1(C)CCN(S(=O)(=O)c2cccc(NC(=O)c3cccc([N+](=O)[O-])c3)c2)CC1`: the concentration for a half-maximal effect (EC50) in data set [1] was above 25000 nM; in data set [2], 10400 nM; in data set [4], 3000 nM. For the same molecule, the selectivity ratio is above 2 in data set [3] and above 8 in [5].
For `CC1(C)CCN(S(=O)(=O)c2ccc(NC(=O)c3cccc([N+](=O)[O-])c3)cc2)CC1` the same measures were above 25000 nM, 6600 nM, 13300 nM, above 4 and above 2.
On to `CC(C)(C)C1CCN(S(=O)(=O)c2ccc(NC(=O)c3ccc([N+](=O)[O-])o3)cc2)CC1`, for which the EC50 is above 25000 nM in [1], 30 nM in [2] and 1400 nM in [4]. In addition, the results for the selectivity ratio in data set [3] and in data set [5] were above 833 and above 18, respectively. Besides, the Activity is given as 48.2% in [6] and 82% in [7].
Regarding `O=C(Nc1ccc(S(=O)(=O)N2CCC(O)CC2)cc1)c1ccc([N+](=O)[O-])o1`, the EC50 in data set [1] is above 25000 nM; in [2] it was 310 nM; in [4], 4400 nM. In addition, the values for the selectivity ratio in data set [3] and in data set [5] were above 81 and above 6, respectively. Further, the outcome in data set [8] was Active. For the same molecule, the Activity in data set [9] is 849 RFU.
Regarding `CC1(C)CCN(S(=O)(=O)c2ccc(NC(=O)c3ccc([N+](=O)[O-])s3)cc2)CC1`, the results for the EC50 in data set [1], in data set [2] and in data set [4] were above 25000 nM, 10 nM and 100 nM, respectively. In addition, the figures for the selectivity ratio in data set [3] and in [5] were above 2500 and above 250, respectively.
Regarding `CC1CS(=O)(=O)CCN1/N=C/c1ccc([N+](=O)[O-])o1` (configuration not stated) [NIFURTIMOX], the concentration for a half-maximal effect (EC50) was above 25000 nM in data set [1], 7500 nM in data set [2] and 800 nM in [4].
`O=C(Nc1ccc(S(=O)(=O)N2CCOCC2)cc1)c1ccco1`: the half-maximal effective concentration (EC50) is above 25000 nM in [1], above 10000 nM in [2] and above 25000 nM in data set [4].
For the molecule `CC(C)(C)C1CCN(S(=O)(=O)c2ccc(NC(=O)c3ccc([N+](=O)[O-])s3)cc2)CC1`, the EC50 in [1] is above 25000 nM; in data set [2], 30 nM; in data set [4], 100 nM. Also, the selectivity ratio was above 833 in data set [3] and above 250 in data set [5].
For `O=C(Nc1ccc(S(=O)(=O)C2CCCCC2)cc1)c1ccc([N+](=O)[O-])o1`, in that order: above 25000 nM, 490 nM, 1600 nM, above 51 and above 16.
In the case of `CC1CCN(S(=O)(=O)c2ccc(NC(=O)c3ccc([N+](=O)[O-])o3)cc2)CC1`, the EC50 in [1] is above 25000 nM; in data set [2], 120 nM; in data set [4], 7700 nM. Also, the selectivity ratio in data set [3] was above 208; in [5] it was above 3.
For `O=C(Nc1ccc(S(=O)(=O)N2CCCCC2)cc1)c1ccc([N+](=O)[O-])o1`, in that order: above 25000 nM, 220 nM, 13700 nM, above 114 and above 2.
For `CC1(C)CCN(S(=O)(=O)c2cccc(NC(=O)c3ccc([N+](=O)[O-])s3)c2)CC1` the same measures were above 25000 nM, 45 nM, 1300 nM, above 556 and above 19.
For `N=C1CCN(S(=O)(=O)c2ccc(NC(=O)c3ccc([N+](=O)[O-])o3)cc2)CC1` the same measures were above 25000 nM, 730 nM, 10500 nM, above 34 and above 2.
Consider `O=C(Nc1ccc(S(=O)(=O)c2ccccc2)cc1)c1ccc([N+](=O)[O-])o1`, for which the concentration giving a half-maximal response (EC50) in data set [1] is above 25000 nM; in data set [2], 110 nM; in data set [4], 4300 nM. Further, the selectivity ratio in data set [3] is above 227; in data set [5] it was above 6.
Turning to `O=C(Nc1ccc(S(=O)(=O)N2CCOCC2)cc1)c1cccs1`, the EC50 was above 25000 nM in [1], above 10000 nM in [2] and above 25000 nM in [4].
Turning to `O=C(Nc1ccc(S(=O)(=O)N2CCC(F)CC2)cc1)c1ccc([N+](=O)[O-])o1`, the EC50 in data set [1] is above 25000 nM; in [2], 420 nM; in data set [4], 7400 nM. Also, the selectivity ratio in data set [3] was above 60; in [5] it was above 3.
For `CC1(C)CCN(S(=O)(=O)c2cccc(NC(=O)c3ccc([N+](=O)[O-])o3)c2)CC1` the same measures were above 25000 nM, 320 nM, 100 nM, above 78 and above 250.
For the molecule `O=C(Nc1ccc(S(=O)(=O)N2CCOCC2)cc1)c1ccc([N+](=O)[O-])cc1`, the EC50 in data set [1] was above 25000 nM; in [2], above 10000 nM; in data set [4], above 25000 nM.
`CC1(C)CCN(S(=O)(=O)c2cccc(NC(=O)c3ccco3)c2)CC1`: the concentration for a half-maximal effect (EC50) was above 25000 nM in data set [1], 5110 nM in [2] and 1200 nM in data set [4]. Also, the selectivity ratio in [3] is above 5; in [5], above 21.
Turning to `Cc1ccc(C(=O)Nc2ccc(S(=O)(=O)N3CCOCC3)cc2)o1`, the EC50 in data set [1] was above 25000 nM; in data set [2], above 10000 nM; in [4], above 25000 nM.
Regarding `CC1(C)CCN(S(=O)(=O)c2ccc(NC(=O)c3ccc(C(F)(F)F)o3)cc2)CC1`, the EC50 was above 25000 nM in [1], 7550 nM in data set [2] and 10700 nM in data set [4]. The selectivity ratio in data set [3] was above 3; in data set [5], above 2.
For `O=C(Nc1ccc(S(=O)(=O)N2CCC3(CCCCC3)CC2)cc1)c1ccc([N+](=O)[O-])s1` the same measures were above 25000 nM, 20 nM, 100 nM, above 1250 and above 250.
